This experiment addresses T1, Calmodulin-sensitive adenylate cyclase (Bacillus anthracis, UniProt P40136).
T1 sequence (P40136 whole entry): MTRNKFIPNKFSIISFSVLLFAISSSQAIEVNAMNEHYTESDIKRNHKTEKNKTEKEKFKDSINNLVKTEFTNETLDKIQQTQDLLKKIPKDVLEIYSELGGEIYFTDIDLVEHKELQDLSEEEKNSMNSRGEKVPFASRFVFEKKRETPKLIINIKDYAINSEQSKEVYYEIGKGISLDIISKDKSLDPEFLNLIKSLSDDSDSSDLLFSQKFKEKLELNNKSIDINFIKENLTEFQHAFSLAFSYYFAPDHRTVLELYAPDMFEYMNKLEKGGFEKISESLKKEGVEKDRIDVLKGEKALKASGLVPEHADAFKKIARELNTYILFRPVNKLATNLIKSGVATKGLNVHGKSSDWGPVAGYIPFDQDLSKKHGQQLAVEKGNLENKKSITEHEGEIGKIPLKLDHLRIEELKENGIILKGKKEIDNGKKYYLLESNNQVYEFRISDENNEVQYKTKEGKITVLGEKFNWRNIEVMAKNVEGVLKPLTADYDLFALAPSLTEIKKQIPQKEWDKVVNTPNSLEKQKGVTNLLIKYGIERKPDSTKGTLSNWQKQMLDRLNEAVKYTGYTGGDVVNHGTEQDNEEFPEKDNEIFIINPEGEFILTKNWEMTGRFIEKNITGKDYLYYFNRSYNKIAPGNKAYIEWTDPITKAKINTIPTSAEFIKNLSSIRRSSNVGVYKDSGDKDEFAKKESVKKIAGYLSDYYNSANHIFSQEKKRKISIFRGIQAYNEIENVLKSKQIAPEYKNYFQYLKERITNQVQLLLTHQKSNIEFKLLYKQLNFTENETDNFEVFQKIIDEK
Nature of the experiment: Inhibition of Bacillus anthracis edema factor-induced edema in RAW264.7 mouse macrophages by cAMP-specific ELISA. It counts as cell-based.

pIC50: −log10 of the molar value.

For `O=C1C=C(c2ccc3ncccc3c2)CCC1`, the pIC50 is under 4.00.

`O=C1C=C(c2cccs2)CCC1` showed a pIC50 of under 4.00.

Regarding `Cn1cc(C2=CC(=O)CCC2)cn1`, the pIC50 is under 4.00.

`O=C1C=C(c2cccnc2)CCC1` gave a pIC50 of under 4.00.

Turning to `O=C1C=C(c2ccsc2)CCC1`, the negative logarithm of the IC50 (pIC50) was under 4.00.

Compound `COc1cccc(C2=CC(=O)CCC2)n1` had a pIC50 of under 4.00.

The compound `O=C1C=C(c2ccoc2)CCC1` had a pIC50 of under 4.00.

Consider `O=C1C=C(c2cccc3c2oc2ccccc23)CCC1`, for which the pIC50 was under 4.00.

For the compound `O=C1C=C(c2cccc(O)c2)CCC1`, the pIC50 was under 4.00.

Take `O=C1C=C(c2ccccc2)CCC1`: the pIC50 is under 4.00.

`CC1(C)CC(=O)C=C(c2ccc3[nH]ccc3c2)C1` had a pIC50 of under 4.00.

`O=C1C=C(c2nccs2)CCC1` showed a pIC50 of under 4.00.

Regarding `CC1(C)CC(=O)C=C(c2cccc3c2oc2ccccc23)C1`, the pIC50 is under 4.00.
